This is an account of results in patent US8729035B2, “Synthesis of novel neamine derivatives and use thereof as antibacterial agents” (Universite Joseph Fourier, priority 2008, dated 2014).

Assay in all cases: MIC determination on r-methylase-expressing resistant Gram (-) bacteria
The test system of assay [1] is E. coli 06AB003 arm. In kind it is cell-based. Particulars: Escherichia coli, 06AB003ARM, 24 h. Here is the method: (§1) The molecules were dissolved in water or DMSO at a concentration of 5 or 10 mg/mL, then the solutions were diluted if necessary. A volume of 200 μL of each of them was put onto a 96-well plate.
(§2) C—Determination of the MIC
(§3) The molecules with a screening score of 10 or 100 were selected to determine their MICs relative to the strains tested.
(§4) As for the validation of the strains, the solution of the molecule selected was diluted by a factor of 2, times 2, using the Biomek2000 robot in 96-well plates to cover a wide range of concentrations. To each of these wells was added a volume of inoculum made from the previous days preculture diluted to 1/100th strength. Each well was repeated. Again, controls of non-contamination, growth and resistance/sensitivity to a reference antibiotic were included in the experiment. The plate was incubated at 37° C., and the kinetics of the bacterial proliferation were monitored over 24 hours, by measuring the OD620 nm at 0, 1, 4, 7, and 24 hours.
(§5) The MIC was the lowest concentration found to be capable of inhibiting bacterial proliferation after 24 hours incubation. Having no previous idea of this value it was possible that it might not fall within the range of dilutions chosen. If this was the case the operation had to be repeated adjusting this range.
(§6) Similar measurements were made on various Gram (−) bacteria. The strains tested were provided by R. Vanhoof (E. coli PAZ505H8101 and L58058.1, P. aeruginosa ATCC 27853, Psa.F03, A. lwoffi A1.88-483), Y. Glupczynski (C. amalonaticus Ca06AB0010), J. C. Pechere (P. aeruginosa PA02, PA03), P. Plésiat (P. aeruginosa PA01, PA21, PA22), H. Schweizer (P. aeruginosa PA405, PA406).

In assay [2] the test system is C. amalonaticus 06AB0010 arm. In kind it is cell-based. Particulars: Citrobacter amalonaticus, 06AB0010ARM. Here is the method: as §1, §2, §3, §4, §5, §6
The subject of assay [3] is E. aerogenes 06AB008 arm. It is filed as cell-based, Enterobacter aerogenes. Particulars: Klebsiella aerogenes, 06AB008ARM, 24 h. Here is the method:
as §1, §2, §3, §4, §5, §6

Each structure is given as a SMILES string. Values after ≈ are worked out from the molar mass of the structure shown. Like-named read-outs stand apart in the source and are kept apart here. Where only a bound is given, the exact number is not on record here.

As for `NCC1OC(OC2C(N)CC(N)C(OCc3cccc4ccccc34)C2O)C(N)C(OCc2cccc3ccccc23)C1O` (stereo not drawn) [3′,6-di1NM, 3′,6-O,O′-di(naphthyl-1-methylene) neamine], the MIC in assay [1] is 4 to 16 µg/mL (≈ 6.64 to 26.5 µM); in assay [2] (resistant bacteria expressing an RNA methylation enzyme (r-methylase), one value stated for the three strains together, 24 hours incubation, read-out: MIC) it was 4 to 16 µg/mL (≈ 6.64 to 26.5 µM); in assay [3], 4 to 16 µg/mL (≈ 6.64 to 26.5 µM).
For the compound `NCC[C@H](O)C(=O)N[C@@H]1C[C@H](N)[C@@H](O[C@H]2O[C@H](CN)[C@@H](O)[C@H](O)[C@H]2O)[C@H](O)[C@H]1O[C@H]1O[C@H](CO)[C@@H](O)[C@H](N)[C@H]1O` [amikacin], the MIC in assay [1], in assay [2] (24 h) and in assay [3] was above 128 µg/mL throughout.
Turning to `NC[C@H]1O[C@H](O[C@H]2[C@H](O)[C@@H](O[C@H]3O[C@H](CO)[C@@H](O)[C@H](N)[C@H]3O)[C@H](N)C[C@@H]2N)[C@H](N)C[C@@H]1O` [tobramycin], the MIC in assay [1], in assay [2] (24 h) and in assay [3] was above 128 µg/mL each time.

By MIC is commonly meant the lowest concentration found to suppress growth.
